SMILES strings stand for the structures. Changes are numbered by the printed parent chain. Like-named read-outs stand apart in the source and are kept apart here.

What is called Kd is the concentration at which binding is half-saturated.

Assay [1] concerns the target T1, human CRBP2 (Homo sapiens, UniProt P50120).
T1 construct: inferred from the Ni-NTA purification; made in house; host or cells: Escherichia coli BL21(DE3)
T1 sequence (P50120 1-134): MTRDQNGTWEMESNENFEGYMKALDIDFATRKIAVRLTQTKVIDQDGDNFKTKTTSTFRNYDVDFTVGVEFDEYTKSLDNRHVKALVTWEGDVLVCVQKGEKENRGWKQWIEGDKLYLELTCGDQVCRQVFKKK
Further details: method as in PMID 32195347. As to conditions: holo-CRBP2 titrated with ligand, cited from earlier work.

The target of assay [2] is T1, human CRBP2. The experiment in a line: X-ray crystal structures of CRBP2 in complex with ligands (enantiomer seen in binding pocket). As to conditions: racemic mixture used for crystallization. On the procedure: The crystallization conditions were identical to those published by Lee et al. ([9]). Human CRBP2 in complexes with nonretinoid ligands were crystallized using the sitting drop vapor diffusion method. Prior to setting up crystallization drops, CRBP2 (9 mg/ml) was incubated with 50 μM of ligand in 10 mM Tris-HCl (pH 8.0) and 150 mM NaCl for 20 min on ice. Protein samples were mixed in a 1:1 ratio with 1 μl of 0.1 M Tris-HCl (pH 8%) and 22–28% polyethylene glycol 3350. The wells were sealed and stored at room temperature. Crystals were collected, cryoprotected in 10% glycerol, 10% polyethylene glycol 2000 (v/v), and flash frozen in liquid nitrogen.
X-ray diffraction data were collected at the Advanced Photon Source Northeastern Collaborative Access Team 24-ID-C and 24-ID-E beamlines. Data reduction was performed using iMosflm software package ([17]). The structures were solved by molecular replacement with PHASER_MR ([18]) and the refined model of CRBP2 [Protein Data Bank (PDB) accession code: 6BTI] as a search model. Adjustments to the protein model were made with COOT ([19]), and the initial model was refined with PHENIX ([20]). […] The coordinates and structure factors for each of the structure analyzed in this report were deposited in the PDB under the following accession codes: 7JVG, 7JVY, 7JWD, 7JWR, 7K3I, 7JX2, and 7JZ5 (Table 2).

Assay [3] concerns the target T1, human CRBP2. The experiment in a line: Chromophore (atROL) replacement fluorescence titration of holo-CRBP2. Format: binding. The note with it: for Kd: holo-CRBP2 titrated with ligand, 25°C, pH 7.4, average of at least three independent titrations, mean ± SD; for fold decrease in affinity (increase in Kd) as compared with 2-AG: ratio of Kd values versus 2-AG. As for the experimental part:
(§1) The chromophore replacement assay was performed as described by Silvaroli et al. ([12]). CRBP2 in complex with atROL was excited with photons at a wavelength of 285 nm. Fluorescence emission was monitored at 350 and 480 nm. Titration with an alternative ligand causes liberation of atROL from the binding pocket and lack of fluorescence resonance energy transfer between the tryptophan residues and the retinoid moiety. The net effect is decrease in the fluorescence signal at 480 nm and concomitant increase at 350 nm (Fig. 1A, B). The experiments were performed on PerkinElmer Life Science LS55 spectrofluorometer at 25°C, using a 1 cm quart cuvette. Three microliters of buffer, 67 mM phosphate-buffered saline (pH 7.4%), 5% glycerol (v/v) containing 1 μg/ml of CRBP2 were dispensed into the cuvette. Increasing concentrations of tested compounds were delivered in acetonitrile. […] The obtained fluorescence spectra corrected for the background. Analysis of the changes in the maximum emission values at the different concentrations of ligands was used to calculate Kd values using the saturation single ligand binding model (SigmaPlot 11 software package; Systat Software). Each Kd listed in Table 1 represents an average value obtained from at least three independent titrations.

In another assay the target is T2, CRBP2^T51I/V62M (Homo sapiens, UniProt P50120, T52I/V63M).
T2 construct: made in house; host or cells: Escherichia coli BL21(DE3)
T2 sequence (P50120 1-134 T52I/V63M): T1 sequence (P50120 1-134) with T52I, V63M
The experiment in a line: Chromophore (atROL) replacement fluorescence titration of the mutant protein. It is filed as binding.
Description: To introduce substitute mutations T51/I and V62/M, cDNA of CRBP2 was cloned into pCR 2.1 vector (Thermo Fisher Scientific). The mutations were introduced by PCR using 5’ phosphorylated primers of the following sequences: T51/I: forward, […]; reverse, […]; V62/M: forward, […]; reverse, […]. The presence of desired substitutions was verified by sequencing. To obtain mutated proteins, their cDNAs harboring these changes were cloned into pET3b vector and expressed and purified as described above.
as §1, with “cuvette.” for “cuvette. Increasing concentrations of tested compounds were delivered in acetonitrile.”, “Analysis of the changes in the maximum emission values at the different concentrations of ligands was used to calculate Kd values using the saturation single ligand binding model (SigmaPlot 11 software package; Systat Software). Each Kd listed in Table 1 represents an average value obtained from at least three independent titrations.” left out

The target in another assay is CRBP1. Further details: method as in PMID 27830500. The note with it: atROL binding to CRBP1; cited from earlier work.

On to `CCCCC/C=C\C/C=C\C/C=C\C/C=C\CCCC(=O)OCC(O)CO` (stereo not drawn) [1-AG, 1-Arachidonoyl glycerol], for which, on human CRBP2 [1], the Kd is 37.9 ± 3.3 nM. For the same molecule, the “enantiomer exclusively present in the binding pocket (electron density)” value on human CRBP2 [2] is “S-enantiomer”.
Consider `CCCCC/C=C\C/C=C\C/C=C\C/C=C\CCCC(=O)SCC(O)CO` (stereo not drawn) [1-ASG, Arachidonoyl-1-thio-glycerol], for which, on human CRBP2 [3] (as compared with 1-AG), the “fold increase of the Kd value on substitution of the ester group with a thioester bond” value is reported as about 2 fold. At human CRBP2 [3], this molecule registered a Kd of 89.3 ± 14.3 nM. Besides, at human CRBP2 [2], the “enantiomer exclusively present in the binding pocket (electron density)” value is given as “R-enantiomer”.
Turning to `CCCCCCCCCCCCCCCCCCCC(=O)OCC(O)CO` (stereo not drawn) [1-ArG, 1-Arachidoyl glycerol], at human CRBP2 [3], the Kd worked out at 133 ± 33.1 nM and the “fold decrease in affinity (increase in Kd) as compared with 2-AG” value is listed as about 5 fold.
Taken in the same sequence, the figures for `CCCCCCCCCC(=O)OCC(O)CO` (stereo not drawn) [1-DG, 1-Decanoyl glycerol] were 780 ± 86.5 nM and 29 fold.
With `CCCCC/C=C\C/C=C\CCCCCCCC(=O)OCC(O)CO` (stereo not drawn) [1-LG, 1-Linoleoyl glycerol], at human CRBP2 [3], the Kd was found to be 97.1 ± 27.6 nM.
The same measure, in the same setting: the figure for `CCCCCCCCCCCCCCCCOCC(O)CO` (stereo not drawn) [1-O-HG, 1-O-hexadecyl glycerol] is 153 ± 7.3 nM.
In the case of `CCCCC/C=C\C/C=C\C/C=C\C/C=C\CCCC(=O)OC(CO)CO` [2-AG, 2-Arachidonoyl glycerol], the Kd at CRBP2^T51I/V62M (CRBP2 T51I/V62M double mutant) was 447 ± 46.1 nM; at human CRBP2 [1], 27.1 ± 2.5 nM. Further, the “fold decrease in the affinity at the mutant” value on CRBP2^T51I/V62M (CRBP2^T51I/V62M versus WT CRBP2) is reported as “over 16 fold”.
As to `CCCCC/C=C\C/C=C\C/C=C\C/C=C\CCCCOC(CO)CO` [2-AGE, 2-Arachidonoyl glycerol ether], the Kd at human CRBP2 [3] was 45.7 ± 2.7 nM.
`CCCCC/C=C\C/C=C\CCCCCCCC(=O)OC(CO)CO` [2-LG, 2-Linoleoyl glycerol]: the Kd on human CRBP2 [1] (read-out: Kd) is 40 ± 4.4 nM.
Take `CCCCCCCCCCCC(=O)OC(CO)CO` [2-LaG, 2-Lauroyl glycerol]: on human CRBP2 [3], the dissociation constant Kd came to 172 ± 8.8 nM and the “fold decrease in affinity (increase in Kd) as compared with 2-AG” value is given as “over 6 fold”.
Consider `CCCCCCCC/C=C\CCCCCCCC(=O)OC(CO)CO` [2-OG, 2-Oleoyl glycerol], for which the Kd at human CRBP2 [1] (read-out: Kd) is 65.4 ± 4.4 nM.
`CCCCCCCCCCCCCCCC(=O)OC(CO)CO` [2-PG, 2-Palmitoyl glycerol]: the Kd at human CRBP2 [3] was found to be 51.2 ± 7.7 nM.
With `CCCCCCCCCCCCCCCCCC(=O)OC(CO)CO` [2-SG, 2-Stearoyl glycerol], at human CRBP2 [3], the Kd worked out at 54.8 ± 9.8 nM and the “fold decrease in affinity (increase in Kd) as compared with 2-AG” value was 2 fold.
Taken in the same sequence, the figures for `CCCCC/C=C\C/C=C\C/C=C\C/C=C\CCCCCC(=O)O` [ADA, Docosatetraenoic acid] were 217 ± 14.4 nM and “eight times higher”.
With `CCCCC/C=C\C/C=C\C/C=C\C/C=C\CCCC(=O)NCCO` [AEA, Arachidonoyl ethanolamide], the “fold decrease in affinity (increase in Kd) as compared with 2-AG” value at human CRBP2 [3] is recorded as about 25 fold. Also, on human CRBP2 [1] (read-out: Kd), the Kd was 663 ± 24 nM.
Turning to `CC1=C(/C=C/C(C)=C/C=C/C(C)=C/CO)C(C)(C)CCC1` [atROL, all-trans-retinol], the Kd at CRBP1 is about 10 nM.

The values above are taken from paper PMC8010219, “Molecular basis for the interaction of cellular retinol binding protein 2 (CRBP2) with nonretinoid ligands” (Journal of Lipid Research, 2021).
